{"source": "patent US20080255224A1", "about": "“PHARM[…] OF PSORIASIS” (priority 2007, published 2008)", "key": {"[1]": {"system": "keratinocyte proliferation", "conditions": "in vitro; cited from earlier work"}, "[2]": {"system": "epidermal keratinocyte differentiation", "conditions": "cited from earlier work"}, "[3]": {"conditions": "prior use for nausea and vomiting of chemotherapy; cited from earlier work"}, "psoriasis": {"system": "psoriasis", "experiment": "Oral nabilone in a patient suffering from psoriasis, inpatient, unblinded", "assay_type": "in vivo, human", "experimental": "A patient suffering from psoriasis was treated with oral nabilone on an inpatient, unblinded basis. The patient suffered from psoriasis which had not responded well to prior drug treatments. To assess whether nabilone was beneficial in alleviating symptoms, nabilone at a dose of 1 mg was added to all other anti-inflammatory and anti-psoriatic medications. The results were dramatic. The regimen administered was a 0.5 mg dosage twice daily for four days, and then 1 mg twice daily for five days and eventually 1 mg daily was administered to the patient. Itch which had been intolerable and incessant abolished with the 1st dose. By the 10th day of therapy the skin redness had disappeared."}}}
{"smiles": "COc1ccc2c(c1)c(CC(=O)N1CCOCC1)c(C)n2C(=O)c1ccc(Cl)cc1", "note": "[BML 190]", "values": [{"measurement": "Inhibition of keratinocyte proliferation", "setting": "[1]", "result": "only partial inhibition"}]}
{"smiles": "CCCCCCC(C)(C)c1cc(O)c2c(c1)OC(C)(C)[C@@H]1CC=C(CO)C[C@@H]21", "note": "[HU210]", "values": [{"measurement": "Inhibition of keratinocyte proliferation", "setting": "[1]", "result": "concentration-dependent response"}]}
{"smiles": "CCCCC/C=C\\C/C=C\\C/C=C\\C/C=C\\CCCC(=O)NCCO", "note": "[Anadamide]", "values": [{"measurement": "Effect on epidermal keratinocyte differentiation", "setting": "[2]", "result": "inhibits"}]}
{"smiles": "CCCCCCC(C)(C)c1cc(O)c2c(c1)OC(C)(C)C1CCC(=O)CC21", "note": "(centres unmarked) [nabilone]", "values": [{"measurement": "Immunosuppressive potential", "setting": "[3]", "result": "does not show immunosuppressive potential"}, {"measurement": "Tolerability", "setting": "[3]", "result": "well tolerated"}, {"measurement": "Itch", "setting": "psoriasis; oral nabilone added to all other anti-inflammatory and anti-psoriatic medications, with the 1st dose (0.5 mg)", "result": "abolished"}, {"measurement": "Skin redness", "setting": "psoriasis; oral, by the 10th day of therapy (0.5 mg twice daily for four days, then 1 mg twice daily for five days, then 1 mg daily)", "result": "disappeared"}]}
{"smiles": "CCCn1c(C)c(C(=O)c2cccc3ccccc23)c2ccccc21", "note": "[JWH015]", "values": [{"measurement": "Inhibition of keratinocyte proliferation", "setting": "[1]", "result": "only partial inhibition"}]}
